Measured values as given in ChEMBL document CHEMBL1139088, “Antihyperglycemic and antidyslipidemic agent from Aegle marmelos” (2007).
Calls of active or inactive are those of the source. No cut-off for these calls is given here.

Legend:
Hamster [1] = experiment: Decrease in plasma triglyceride levels in dyslipidemic hamster model at 108 mg/kg after 7 days; assay type: functional, Cricetinae; parameters: scale not given: the % may be the effect or the level left
Hamster [2] = experiment: Increase in ratio of plasma HDL to plasma cholesterol levels at 108 mg/kg after 7 days; assay type: functional, Cricetinae
Hamster [3] = experiment: Decrease in plasma glycerol levels in dyslipidemic hamster model at 108 mg/kg after 7 days; assay type: functional, Cricetinae; parameters: scale not given: the % may be the effect or the level left
Hamster [4] = experiment: Decrease in plasma FFA levels in dyslipidemic hamster model at 108 mg/kg after 7 days; assay type: functional, Cricetinae; parameters: scale not given: the % may be the effect or the level left
Hamster [5] = experiment: Increase in plasma HDL-C levels in dyslipidemic hamster model at 108 mg/kg after 7 days; assay type: functional, organism-based; parameters: dose 108 mg/kg; settings: Cricetinae
Hamster [6] = experiment: Decrease in plasma cholesterol levels in dyslipidemic hamster model at 108 mg/kg after 7 days; assay type: functional, Cricetinae; parameters: scale not given: the % may be the effect or the level left
Rattus norvegicus [7] = experiment: Increase in blood glucose levels in Sprague-Dawley Albino rat at 100 mg/kg, po after 24 hrs; assay type: functional
Rattus norvegicus [8] = experiment: Increase in blood glucose levels in Sprague-Dawley Albino rat at 100 mg/kg, po after 5 hrs; assay type: functional
Hamster [9] = experiment: Increase in ratio of plasma HDL to plasma cholesterol levels at 30 mg/kg after 7 days; assay type: functional, Cricetinae
Hamster [10] = experiment: Increase in plasma HDL-C levels in dyslipidemic hamster model at 50 mg/kg after 7 days; assay type: functional, Cricetinae
Hamster [11] = experiment: Decrease in plasma triglyceride levels in dyslipidemic hamster model at 30 mg/kg after 7 days; assay type: functional, Cricetinae; parameters: scale not given: the % may be the effect or the level left
Hamster [12] = experiment: Decrease in plasma FFA levels in dyslipidemic hamster model at 30 mg/kg after 7 days; assay type: functional, Cricetinae; parameters: scale not given: the % may be the effect or the level left
Homo sapiens [13] = organism: Homo sapiens; experiment: Inhibition of alpha-glucosidase
Hamster [14] = experiment: Increase in ratio of plasma HDL to plasma cholesterol levels at 50 mg/kg after 7 days; assay type: functional, Cricetinae
Hamster [15] = experiment: Decrease in plasma glycerol levels in dyslipidemic hamster model at 50 mg/kg after 7 days; assay type: functional, Cricetinae; parameters: scale not given: the % may be the effect or the level left
Hamster [16] = experiment: Decrease in plasma cholesterol levels in dyslipidemic hamster model at 30 mg/kg after 7 days; assay type: functional, Cricetinae; parameters: scale not given: the % may be the effect or the level left
Hamster [17] = experiment: Increase in plasma HDL-C levels in dyslipidemic hamster model at 30 mg/kg after 7 days; assay type: functional, organism-based; parameters: dose 30 mg/kg; settings: Cricetinae
Hamster [18] = experiment: Decrease in plasma triglyceride levels in dyslipidemic hamster model at 50 mg/kg after 7 days; assay type: functional, Cricetinae; parameters: scale not given: the % may be the effect or the level left
Hamster [19] = experiment: Decrease in plasma cholesterol levels in dyslipidemic hamster model at 50 mg/kg after 7 days; assay type: functional, Cricetinae; parameters: scale not given: the % may be the effect or the level left
Hamster [20] = experiment: Decrease in plasma glycerol levels in dyslipidemic hamster model at 30 mg/kg after 7 days; assay type: functional, Cricetinae; parameters: scale not given: the % may be the effect or the level left
Homo sapiens [21] = organism: Homo sapiens; experiment: Inhibition of PTPase
Hamster [22] = experiment: Decrease in plasma FFA levels in dyslipidemic hamster model at 50 mg/kg after 7 days; assay type: functional, Cricetinae; parameters: scale not given: the % may be the effect or the level left

**Q.** What does the source list for `CC(C)OC(=O)C(C)(C)Oc1ccc(C(=O)c2ccc(Cl)cc2)cc1` [FENOFIBRATE]?
**A.** Activity (Hamster [1]): 42%; Activity (Hamster [2]): 10%; Activity (Hamster [3]): 36%; Activity (Hamster [4]): 20%; Activity (Hamster [5]): inactive; Activity (Hamster [6]): 18%

**Q.** Which results are given for `CN(C)C(=N)NC(=N)N` [METFORMIN]?
**A.** Activity (Rattus norvegicus [7]): 26.5%; Activity (Rattus norvegicus [8]): 23.5%

**Q.** For `COc1ccc([C@@H](O)CNC(=O)/C=C/c2ccccc2)cc1` [AEGELINE], which Activity (Hamster [9]) is on record?
**A.** 20%

**Q.** What about the Activity (Rattus norvegicus [7]) of the same compound?
**A.** 16.9%

**Q.** And the Activity (Hamster [10])?
**A.** 28%

**Q.** And the Activity (Hamster [11])?
**A.** 48%

**Q.** And the Activity (Hamster [12])?
**A.** 14%

**Q.** And the Activity (Homo sapiens [13])?
**A.** inactive

**Q.** And the Activity (Hamster [14])?
**A.** 66%

**Q.** And the Activity (Hamster [15])?
**A.** 31%

**Q.** And the Activity (Hamster [16])?
**A.** 17%

**Q.** And the Activity (Hamster [17])?
**A.** inactive

**Q.** What about the Activity (Hamster [18]) of the same compound?
**A.** 55%

**Q.** And the Activity (Hamster [19])?
**A.** 24%

**Q.** What about the Activity (Hamster [20]) of the same compound?
**A.** 23%

**Q.** And the Activity (Homo sapiens [21])?
**A.** inactive

**Q.** And the Activity (Hamster [22])?
**A.** 24%

**Q.** And the Activity (Rattus norvegicus [8])?
**A.** 12.9%
